US6890361B2, “Modification of printed and dyed materials” (Novozymes North America, Inc., priority 2001, dated 2005)

Tests used:
[1] = UV-vis absorbance of disperse dyes dissolved in acetone (reference); format: physicochemical; conditions: dye concentration 50 mg/l
[2] = Alkaline (NaOH) treatment of disperse dye suspension, UV-vis absorbance of solubilized dye; format: physicochemical; design: key: #: Means absorbance was not detectable by UV-vis spectrometer due to the turbidity of the suspension; conditions: in water, [Dye] = 50 mg/L, Table 3
Description: This procedure was repeated for the alkaline treatment at 80° C.

cutinase = conditions: Table 3
Description: 5 mg/ml dye stock (suspension in 20 mM pH8 phosphate buffer) was made for each commercial dye. Since the absorbance of an opaque dye suspension cannot be detected by UV-vis spectrometer, these fives dyes were dissolved in acetone in the concentration of 50˜100 mg/L and the absorbance of each dye solution was measured as reference (see Table 1).
After 10 min. preheating in waterbath, each sample was dosed with 62.5 mg/L cutinase and incubated for 10 min. The samples were then taken out for UV-vis measurement.

In the case of `CCC(=O)Nc1cc(N(CCOC(C)=O)CCOC(C)=O)ccc1N=Nc1ccc([N+](=O)[O-])cc1Cl` [Disperse Red 167], the Abs@λ max [1] is reported as 1.23, the “NaOH Treated (70 C.) Abs@λ_max” value ([2]; 70 C.) is reported as “#” and the “NaOH Treated (80 C.) Abs@λ_max” value ([2]; 80 C.) is reported as “#”. The “effect of cutinase treatment on dye solubility (in words)” value (cutinase; cutinase treated) was “increase in dye solubility” and the “Cutinase Treated (70 C.) Abs@λ_max” value (cutinase; in water, [Dye] = 50 mg/L, λ_max 480 nm) was 0.4249 AU.
